Source: US10336762B2 (priority 2017, dated 2019)
Like-named read-outs stand apart in the source and are kept apart here.

Assays:
[1] = tested on: TNFα; experiment: cells; assay type: cell-based, human; details: Homo sapiens, Monocyte, LPS-stimulated human monocytes, read-out: EC50 TNF
[2] = target: IRAK4 enzyme (Homo sapiens (Human), UniProt Q9NWZ3); experiment: biochemical; assay type: biochemical; details: IRAK4 enzyme, 500 μM ATP
IRAK4 enzyme, sequence (Q9NWZ3 whole entry): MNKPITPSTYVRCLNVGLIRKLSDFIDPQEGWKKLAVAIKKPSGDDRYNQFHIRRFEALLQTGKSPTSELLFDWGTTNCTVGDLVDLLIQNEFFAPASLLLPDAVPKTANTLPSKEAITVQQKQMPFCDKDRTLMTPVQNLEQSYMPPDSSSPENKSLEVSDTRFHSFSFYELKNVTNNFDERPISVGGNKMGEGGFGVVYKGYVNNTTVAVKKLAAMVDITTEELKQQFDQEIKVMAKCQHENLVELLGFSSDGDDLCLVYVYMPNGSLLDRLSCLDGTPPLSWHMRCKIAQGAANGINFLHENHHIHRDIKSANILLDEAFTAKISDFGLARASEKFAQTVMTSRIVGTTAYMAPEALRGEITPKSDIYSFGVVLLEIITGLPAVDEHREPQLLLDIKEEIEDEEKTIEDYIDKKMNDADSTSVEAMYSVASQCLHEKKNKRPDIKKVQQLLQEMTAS

SMILES	EC50 ([1]; TNFα content) [nM]	IC50 ([2]; TR-FRET) [nM]	EC50 ([1]; TNFα by TR-FRET) [nM]	IC50 ([2]; TR-FRET (HTRF)) [nM]
Cc1cncc(Nc2cc(-c3ccc4cc(C#N)cnn34)ncc2C(=O)NC[C@@H](F)C(C)(C)O)c1 [Example 233, (R)-6-(3-cyanopyrrolo[1,2-b]pyridazin-7-yl)-N-(2-fluoro-3-hydroxy-3-methylbutyl)-4-((5-methylpyridin-3-yl)amino)nicotinamide]	170	1	–	–
CC(C)Nc1cc(-c2ccc3cc(C#N)cnn23)ncc1C(=O)NCC(=O)N1CC(F)(F)C1 [Example 807, 6-(3-cyanopyrrolo[1,2-b]pyridazin-7-yl)-N-(2-(3,3-difluoroazetidin-1-yl)-2-oxoethyl)-4-(isopropylamino) nicotinamide]	–	2	75	–
N#Cc1cnn2c(-c3cc(N[C@H]4CCC[C@@H](O)C4)c(C(=O)NC4C[C@H]4F)cn3)ccc2c1 (stereo partly drawn) [Example 426, 6-(3-cyanopyrrolo[1,2-b]pyridazin-7-yl)-N-((2R)-2-fluorocyclopropyl)-4-(((1S,3R)-3-hydroxycyclo-hexyl)amino)nicotinamide]	591	–	–	5
N#Cc1cnn2c(-c3cc(NC4COC4)c(C(=O)NCC(=O)N4CC(F)(F)C4)cn3)ccc2c1 [Example 626, 6-(3-cyanopyrrolo[1,2-b]pyridazin-7-yl)-N-(2-(3,3-difluoroazetidin-1-yl)-2-oxoethyl)-4-(oxetan-3-ylamino)nicotinamide]	79	–	–	< 1
COC(C)(C)[C@H](F)CNC(=O)c1cnc(-c2ccc3cc(C#N)cnn23)cc1N[C@H]1CCC[C@@H](O)C1 [Example 518, 6-(3-cyanopyrrolo[1,2-b]pyridazin-7-yl)-N-((R)-2-fluoro-3-methoxy-3-methylbutyl)-4-(((1S,3R)-3-hydroxycyclohexyl)amino) nicotinamide]	13	–	–	< 1
CN(C)C(=O)CNC(=O)c1cnc(-c2ccc3cc(C#N)cnn23)cc1NC12CCC(O)(CC1)CC2 [Example 333, 6-(3-cyanopyrrolo[1,2-b]pyridazin-7-yl)-N-(2-(dimethylamino)-2-oxo-ethyl)-4-((4-hydroxy-bicyclo[2.2.2]octan-1-yl)amino)nicotinamide]	87	< 1	–	–
CC(C)(O)[C@H](F)CNC(=O)c1cnc(-c2ccc3cc(C#N)cnn23)cc1NC[C@H]1COCCN1 [Example 916, 6-(3-cyanopyrrolo[1,2-b]pyridazin-7-yl)-N-((R)-2-fluoro-3-hydroxy-3-methylbutyl)-4-((((S)-morpholin-3-yl)methyl)amino)nicotinamide]	–	3	88	–
CC(C)(O)[C@H](F)CNC(=O)c1cnc(-c2ccc3cc(C#N)cnn23)cc1Nc1cccnn1 [Example 588, (R)-6-(3-cyanopyrrolo[1,2-b]pyridazin-7-yl)-N-(2-fluoro-3-hydroxy-3-methylbutyl)-4-(pyridazin-3-ylamino)nicotinamide]	412	–	–	3
CC(C)Nc1cc(-c2ccc3cc(C#N)cnn23)ncc1C(=O)NC1CC2(CC(=O)C2)C1 [Example 152, 6-(3-cyanopyrrolo[1,2-b]pyridazin-7-yl)-4-(isopropylamino)-N-(6-oxospiro[3.3]heptan-2-yl)nicotinamide]	191	2	–	–
COC(=O)NC(C)(C)CCNC(=O)c1cnc(-c2ccc3cc(C#N)cnn23)cc1NC12CCC(O)(CC1)CC2 [Example 343, Methyl (4-(6-(3-cyanopyrrolo[1,2-b]pyridazin-7-yl)-4-((4-hydroxybicyclo[2.2.2]octan-1-yl)amino)nicotinamido)-2-methylbutan-2-yl)carbamate]	38	1	–	–
COCC(=O)N1CCC(Nc2cc(-c3ccc4cc(C#N)cnn34)ncc2C(=O)NC[C@@H](F)C(C)(C)O)CC1 [Example 328, (R)-6-(3-cyanopyrrolo[1,2-b]pyridazin-7-yl)-N-(2-fluoro-3-hydroxy-3-methylbutyl)-4-((1-(2-methoxyacetyl)piperidin-4-yl)amino)nicotinamide]	300	6	–	–
CC(C)(O)[C@H](F)CNC(=O)c1cnc(-c2ccc3cc(C#N)cnn23)cc1Nc1cncc(OCC(F)(F)F)c1 [Example 857, (R)-6-(3-cyanopyrrolo[1,2-b]pyridazin-7-yl)-N-(2-fluoro-3-hydroxy-3-methylbutyl)-4-((5-(2,2,2-trifluoroethoxy)pyridin-3-yl)amino)nicotinamide]	–	< 1	9	–
CN(C)c1ccc(Nc2cc(-c3ccc4cc(C#N)cnn34)ncc2C(=O)NC[C@@H](F)C(C)(C)O)cn1 [Example 679, (R)-6-(3-cyanopyrrolo[1,2-b]pyridazin-7-yl)-4-((6-(dimethylamino)pyridin-3-yl)amino)-N-(2-fluoro-3-hydroxy-3-methylbutyl)nicotinamide]	17	–	–	< 1
CC(C)(O)[C@H](F)CNC(=O)c1cnc(-c2ccc3cc(C#N)cnn23)cc1Nc1cncc(C#N)c1 [Example 610, (R)-4-((5-cyanopyridin-3-yl)amino)-6-(3-cyano-pyrrolo[1,2-b]pyridazin-7-yl)-N-(2-fluoro-3-hydroxy-3-methylbutyl)nicotinamide]	50	–	–	< 1
CC(C)(O)[C@H](F)CNC(=O)c1cnc(-c2ccc3cc(C#N)cnn23)cc1N[C@H]1C[C@@H]2C[C@H]1CN2 [Example 32, 4-(((1S,4S,5S)-2-azabicyclo[2.2.1]heptan-5-yl)amino)-6-(3-cyano-pyrrolo[1,2-b]pyridazin-7-yl)-N-((R)-2-fluoro-3-hydroxy-3-methylbutyl)nicotinamide]	> 10000	3	–	–
COC(=O)Nc1ccc(Nc2cc(-c3ccc4cc(C#N)cnn34)ncc2C(=O)NC[C@@H](F)C(C)(C)O)cn1 [Example 888, methyl (R)-(5-((2-(3-cyanopyrrolo[1,2-b]pyridazin-7-yl)-5-((2-fluoro-3-hydroxy-3-methylbutyl)carbamoyl)pyridin-4-yl)amino)pyridin-2-yl)carbamate]	–	< 1	21	–
CC(=O)NCC12CC(Nc3cc(-c4ccc5cc(C#N)cnn45)ncc3C(=O)NC[C@@H](F)C(C)(C)O)(C1)C2 [Example 546, (R)-4-((3-(acetamidomethyl)bicyclo[1.1.1]pentan-1-yl)amino)-6-(3-cyano-pyrrolo[1,2-b]pyridazin-7-yl)-N-(2-fluoro-3-hydroxy-3-methylbutyl) nicotinamide]	90	–	–	1
Cc1n[nH]c2cc(Nc3cc(-c4ccc5cc(C#N)cnn45)ncc3C(=O)NC[C@@H](F)C(C)(C)O)ccc12 [Example 660, (R)-6-(3-cyanopyrrolo[1,2-b]pyridazin-7-yl)-N-(2-fluoro-3-hydroxy-3-methylbutyl)-4-((3-methyl-1H-indazol-6-yl)amino) nicotinamide]	64	–	–	1
CC(C)(O)[C@H](F)CNC(=O)c1cnc(-c2ccc3cc(C#N)cnn23)cc1Nc1ccc(N2CC(F)(F)C2)nc1 [Example 682, (R)-6-(3-cyanopyrrolo[1,2-b]pyridazin-7-yl)-4-((6-(3,3-difluoroazetidin-1-yl)pyridin-3-yl)amino)-N-(2-fluoro-3-hydroxy-3-methylbutyl) nicotinamide]	22	–	–	1
